Test results: ChEMBL document CHEMBL6153079, “Discovery of noncovalent diaminopyrimidine-based Inhibitors for glioblastoma via a dual FAK/DNA targeting strategy” (Eur J Med Chem, 2025)
Active and inactive are the calls of the source. No cut-off for these calls is given here.

Assays:
U-87 MG [1] = assay: Inhibition of colony formation in human U-87 MG cells at 0.005 uM incubated for 14 days and subsequent media replacement with compound for every 3 days by crystal violet staining based analysis; assay type: functional, cell-based; conditions: U-87MG ATCC, time 14.0 day
U-87 MG [2] = assay: Induction of cell cycle arrest in human U-87 MG cells assessed as accumulation of cells at S phase at 0.02 uM by propidium Iodide staining based flow cytometry analysis (reference value: 9.59%); assay type: functional, U-87MG ATCC
U-87 MG [3] = assay: Induction of cell cycle arrest in human U-87 MG cells assessed as accumulation of cells at G2M phase at 0.01 uM by propidium Iodide staining based flow cytometry analysis (reference value: 9.73%); assay type: functional, U-87MG ATCC
U-87 MG [4] = assay: Induction of DNA damage in human U-87 MG cells assessed as comet tail moment at 0.1 to 2 uM incubated for 2.5 to 3 hrs by comet assay; assay type: functional, U-87MG ATCC; conditions: time 2.5-3 hrs
U-87 MG [5] = assay: Induction of apoptosis in human U-87 MG cells assessed as viable cells at 2 uM measured upto 24 hrs by Annexin V-FITC/PI staining based flow cytometry analysis (reference value: 98.4%); assay type: functional, U-87MG ATCC; conditions: read-out: Activity
U-87 MG [6] = assay: Induction of apoptosis in human U-87 MG cells assessed as necrotic cells at 0.01 uM measured upto 24 hrs by Annexin V-FITC/PI staining based flow cytometry analysis (reference value: 0.62%); assay type: functional, U-87MG ATCC
U-87 MG [7] = assay: Induction of cell cycle arrest in human U-87 MG cells assessed as accumulation of cells at G0/G1 phase at 2 uM by propidium Iodide staining based flow cytometry analysis (reference value: 80.68%); assay type: functional, U-87MG ATCC
U-87 MG [8] = assay: Induction of cell cycle arrest in human U-87 MG cells assessed as accumulation of cells at […] at 0.2 uM by propidium Iodide staining based flow cytometry analysis (reference value: 1.67%); assay type: functional, U-87MG ATCC
U-87 MG [9] = assay: Induction of cell cycle arrest in human U-87 MG cells assessed as accumulation of cells at G0/G1 phase at 0.02 uM by propidium Iodide staining based flow cytometry analysis (reference value: 80.68%); assay type: functional, U-87MG ATCC
U-87 MG [10] = assay: Induction of apoptosis in human U-87 MG cells assessed as viable cells at 0.01 uM measured upto 24 hrs by Annexin V-FITC/PI staining based flow cytometry analysis (reference value: 98.4%); assay type: functional, U-87MG ATCC; conditions: read-out: Activity
U-87 MG [11] = assay: Induction of cell cycle arrest in human U-87 MG cells assessed as accumulation of cells at S phase at 2 uM by propidium Iodide staining based flow cytometry analysis (reference value: 9.59%); assay type: functional, U-87MG ATCC
U-87 MG [12] = assay: Induction of apoptosis in human U-87 MG cells assessed as late apoptotic cells at 0.01 uM measured upto 24 hrs by Annexin V-FITC/PI staining based flow cytometry analysis (reference value: 0.54%); assay type: functional, U-87MG ATCC
U-87 MG [13] = assay: Induction of apoptosis in human U-87 MG cells assessed as early apoptotic cells at 2 uM measured upto 24 hrs by Annexin V-FITC/PI staining based flow cytometry analysis (reference value: 0.45%); assay type: functional, U-87MG ATCC
[14] = Toxicity in BALB/c mouse implanted with human U-87 MG cells assessed as liver damage at 25 mg/kg, ip administered once daily for 15 days by H and E staining based analysis; assay type: organism-based; conditions: in vivo, 360 h, time 15 day
U-87 MG [15] = assay: Inhibition of cell migration in human U-87 MG cells assessed as […] in migration distance at 0.1 to 1 uM incubated for 24 to 48 hrs by wound healing assay; assay type: functional, cell-based; conditions: U-87MG ATCC, dose 0.1-1 µM, time lower 24.0 hrs, time upper […]
[16] = Toxicity in BALB/c mouse implanted with human U-87 MG cells assessed as tubular epithelial degeneration in renal cortex at 25 mg/kg, ip administered once daily for 15 days by H and E staining based analysis; assay type: organism-based; conditions: in vivo, 360 h, time 15 day
U-87 MG [17] = assay: Induction of apoptosis in human U-87 MG cells assessed as late apoptotic cells at 0.02 uM measured upto 24 hrs by Annexin V-FITC/PI staining based flow cytometry analysis (reference value: 0.54%); assay type: functional, U-87MG ATCC
U-87 MG [18] = assay: Induction of apoptosis in human U-87 MG cells assessed as late apoptotic cells at 0.2 uM measured upto 24 hrs by Annexin V-FITC/PI staining based flow cytometry analysis (reference value: 0.54%); assay type: functional, U-87MG ATCC
U-87 MG [19] = assay: Induction of apoptosis in human U-87 MG cells assessed as viable cells at 0.2 uM measured upto 24 hrs by Annexin V-FITC/PI staining based flow cytometry analysis (reference value: 98.4%); assay type: functional, U-87MG ATCC; conditions: read-out: Activity
Focal adhesion kinase 1 [20] = molecular target: T1, Focal adhesion kinase 1 (Homo sapiens, UniProt Q05397); assay: Inhibition of FAK (unknown origin) preincubated for 10 mins followed by ATP and substrate addition and measured after 50 mins by HTRF analysis
Target sequence in this assay (Q05397 whole entry): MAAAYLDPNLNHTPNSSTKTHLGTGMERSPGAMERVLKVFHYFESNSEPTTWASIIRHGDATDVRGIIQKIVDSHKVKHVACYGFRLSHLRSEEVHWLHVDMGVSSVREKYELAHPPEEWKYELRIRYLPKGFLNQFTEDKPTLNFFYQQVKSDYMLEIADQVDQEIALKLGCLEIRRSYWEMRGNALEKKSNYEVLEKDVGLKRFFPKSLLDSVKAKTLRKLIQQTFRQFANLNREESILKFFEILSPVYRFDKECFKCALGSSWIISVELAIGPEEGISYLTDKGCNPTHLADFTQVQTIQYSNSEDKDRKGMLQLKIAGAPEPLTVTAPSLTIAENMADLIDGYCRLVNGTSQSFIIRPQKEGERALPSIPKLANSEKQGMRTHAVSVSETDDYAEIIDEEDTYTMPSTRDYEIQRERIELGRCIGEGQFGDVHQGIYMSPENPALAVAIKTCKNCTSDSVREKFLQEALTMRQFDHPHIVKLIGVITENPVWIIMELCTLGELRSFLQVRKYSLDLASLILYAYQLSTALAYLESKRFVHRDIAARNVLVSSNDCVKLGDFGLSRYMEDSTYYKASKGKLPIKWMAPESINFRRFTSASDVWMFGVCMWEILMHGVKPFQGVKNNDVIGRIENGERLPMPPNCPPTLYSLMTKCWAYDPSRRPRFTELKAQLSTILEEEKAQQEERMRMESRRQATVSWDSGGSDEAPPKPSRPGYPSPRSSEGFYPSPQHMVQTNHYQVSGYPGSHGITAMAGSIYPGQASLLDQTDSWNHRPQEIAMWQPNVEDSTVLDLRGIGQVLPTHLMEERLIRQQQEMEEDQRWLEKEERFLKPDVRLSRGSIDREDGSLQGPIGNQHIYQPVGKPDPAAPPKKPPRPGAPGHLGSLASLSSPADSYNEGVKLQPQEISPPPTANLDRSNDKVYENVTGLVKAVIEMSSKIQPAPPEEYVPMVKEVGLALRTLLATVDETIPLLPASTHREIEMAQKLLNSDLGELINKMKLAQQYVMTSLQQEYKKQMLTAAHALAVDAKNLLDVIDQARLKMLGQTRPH

U-87 MG [21] = assay: Induction of cell cycle arrest in human U-87 MG cells assessed as accumulation of cells at G0/G1 phase at 0.2 uM by propidium Iodide staining based flow cytometry analysis (reference value: 80.68%); assay type: functional, U-87MG ATCC
U-87 MG [22] = assay: Antiproliferative activity against human U-87 MG assessed as cell viability incubated for 48 hrs by MTT assay; assay type: functional, cell-based, U-87MG ATCC
U-87 MG [23] = assay: Induction of cell cycle arrest in human U-87 MG cells assessed as accumulation of cells at G2M phase at 2 uM by propidium Iodide staining based flow cytometry analysis (reference value: 9.73%); assay type: functional, U-87MG ATCC
U-87 MG [24] = assay: Induction of cell cycle arrest in human U-87 MG cells assessed as accumulation of cells at […] at 2 uM by propidium Iodide staining based flow cytometry analysis (reference value: 1.67%); assay type: functional, U-87MG ATCC
U-87 MG [25] = assay: Induction of apoptosis in human U-87 MG cells assessed as […] in Bcl-xL level at 0.05 to 0.8 uM incubated for 24 hrs by Western blot analysis; assay type: functional, cell-based; conditions: U-87MG ATCC, dose 0.05-0.8 µM
U-87 MG [26] = assay: Antiproliferative activity against human U-87 MG assessed as cell growth inhibition at 0.1 to 2 uM; assay type: functional, cell-based; conditions: U-87MG ATCC
[27] = Toxicity in BALB/c mouse implanted with human U-87 MG cells assessed as lung damage at 5 mg/kg, ip administered once daily for 15 days by H and E staining based analysis; assay type: organism-based; conditions: in vivo, 360 h, time 15 day
[28] = Toxicity in BALB/c mouse implanted with human U-87 MG cells assessed as spleen damage at 5 mg/kg, ip administered once daily for 15 days by H and E staining based analysis; assay type: organism-based; conditions: in vivo, 360 h, time 15 day
U-87 MG [29] = assay: Induction of apoptosis in human U-87 MG cells assessed as early apoptotic cells at 0.01 uM measured upto 24 hrs by Annexin V-FITC/PI staining based flow cytometry analysis (reference value: 0.45%); assay type: functional, U-87MG ATCC
U-87 MG [30] = assay: Inhibition of ERK1/2 phosphorylation in human U-87 MG cells at 0.8 uM incubated for 24 hrs by Western blot analysis; assay type: cell-based
U-87 MG [31] = assay: Induction of apoptosis in human U-87 MG cells assessed as viable cells at 0.02 uM measured upto 24 hrs by Annexin V-FITC/PI staining based flow cytometry analysis (reference value: 98.4%); assay type: functional, U-87MG ATCC; conditions: read-out: Activity
Focal adhesion kinase 1 [32] = molecular target: T1, Focal adhesion kinase 1; assay: Inhibition of FAK (unknown origin) at 10 nM relative to control
Target sequence in this assay (Q05397 2-1052 limits assumed): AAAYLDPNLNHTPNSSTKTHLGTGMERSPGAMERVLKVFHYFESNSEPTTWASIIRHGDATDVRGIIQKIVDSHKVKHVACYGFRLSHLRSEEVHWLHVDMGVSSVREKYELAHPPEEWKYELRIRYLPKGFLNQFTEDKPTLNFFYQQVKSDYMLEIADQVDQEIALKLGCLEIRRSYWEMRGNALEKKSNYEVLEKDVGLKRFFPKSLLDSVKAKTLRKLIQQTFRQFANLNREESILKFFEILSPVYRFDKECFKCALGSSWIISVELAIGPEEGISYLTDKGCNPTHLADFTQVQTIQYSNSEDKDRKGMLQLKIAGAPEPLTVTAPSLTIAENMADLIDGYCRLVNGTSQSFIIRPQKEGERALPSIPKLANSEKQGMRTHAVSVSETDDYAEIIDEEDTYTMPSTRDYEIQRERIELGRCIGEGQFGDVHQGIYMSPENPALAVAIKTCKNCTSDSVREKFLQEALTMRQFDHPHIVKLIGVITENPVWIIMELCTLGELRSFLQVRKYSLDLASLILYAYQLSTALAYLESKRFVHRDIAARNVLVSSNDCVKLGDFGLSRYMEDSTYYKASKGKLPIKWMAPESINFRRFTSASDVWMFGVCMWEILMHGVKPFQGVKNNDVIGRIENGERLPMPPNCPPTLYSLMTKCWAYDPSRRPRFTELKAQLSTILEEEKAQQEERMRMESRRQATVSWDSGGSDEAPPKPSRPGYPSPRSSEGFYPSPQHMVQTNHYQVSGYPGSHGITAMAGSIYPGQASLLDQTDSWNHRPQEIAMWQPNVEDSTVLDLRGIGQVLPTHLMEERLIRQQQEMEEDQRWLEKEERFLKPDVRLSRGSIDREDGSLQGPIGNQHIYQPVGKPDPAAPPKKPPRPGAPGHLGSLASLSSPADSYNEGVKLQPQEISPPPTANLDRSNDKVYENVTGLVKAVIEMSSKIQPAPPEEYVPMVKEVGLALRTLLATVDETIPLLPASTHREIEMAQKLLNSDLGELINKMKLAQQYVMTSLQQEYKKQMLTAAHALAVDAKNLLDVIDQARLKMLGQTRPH

[33] = Effective permeability of compound at pH 7.4 incubated for 16 hrs by LCMS analysis; assay type: ADME; conditions: pH 7.4, 16 h
U-87 MG [34] = assay: Inhibition of AKT phosphorylation in human U-87 MG cells at 0.05 uM incubated for 24 hrs by Western blot analysis; assay type: cell-based

CNC(=O)c1ccccc1Nc1nc(Nc2ccc(N3CCN(CCOC(=O)CCCc4ccc(N(CCCl)CCCl)cc4)CC3)cc2)ncc1C(F)(F)F
inhibition (U-87 MG [1]): Active | Activity (U-87 MG [2]): 16.42% | Activity (U-87 MG [3]): 16.53% | Activity (U-87 MG [4]): 11.6 | viability at 2 µM (U-87 MG [5]): 44.2% | Activity (U-87 MG [6]): 4.83% | Activity (U-87 MG [7]): 38.9% | Activity (U-87 MG [8]): 1.81% | Activity (U-87 MG [9]): 62.68% | viability at 0.01 µM (U-87 MG [10]): 74.8% | Activity (U-87 MG [11]): 10.99% | Activity (U-87 MG [12]): 4.61% | Activity (U-87 MG [13]): 46.5% | Activity [14]: Non-toxic | inhibition (U-87 MG [15]): Active | Activity [16]: Non-toxic | Activity (U-87 MG [17]): 4.8% | Activity (U-87 MG [18]): 5.65% | viability at 0.2 µM (U-87 MG [19]): 63.7% | IC50 (Focal adhesion kinase 1 [20]): 0.815 nM | Activity (U-87 MG [21]): 44.98% | IC50 (U-87 MG [22]): 15 nM | Activity (U-87 MG [23]): 50.11% | Activity (U-87 MG [24]): 1.88% | Activity (U-87 MG [25]): Active | Activity (U-87 MG [26]): Active | Activity [27]: Non-toxic | Activity [28]: Non-toxic | Activity (U-87 MG [29]): 15.8% | inhibition (U-87 MG [30]): 100% | viability at 0.02 µM (U-87 MG [31]): 63.8% | inhibition (Focal adhesion kinase 1 [32]): 98.6% | Peff [33]: 0.002 10^-6 cm/s | inhibition (U-87 MG [34]): Active
